Experiments:
[1] = target: PKCδ (Homo sapiens, UniProt Q05655); assay: lidocaine binding to and modulation of PKCδ (applicant's discovery, no method given); format: biochemical; conditions: calcium independent PKC isozyme PKCδ; qualitative statement
[2] = tested on: calcium-activated, phospholipid-dependent protein kinase (PKC); conditions: data suggesting; M. K. Tomoda et al., 1990; cited from earlier work

Sequence of PKCδ (Q05655 whole entry): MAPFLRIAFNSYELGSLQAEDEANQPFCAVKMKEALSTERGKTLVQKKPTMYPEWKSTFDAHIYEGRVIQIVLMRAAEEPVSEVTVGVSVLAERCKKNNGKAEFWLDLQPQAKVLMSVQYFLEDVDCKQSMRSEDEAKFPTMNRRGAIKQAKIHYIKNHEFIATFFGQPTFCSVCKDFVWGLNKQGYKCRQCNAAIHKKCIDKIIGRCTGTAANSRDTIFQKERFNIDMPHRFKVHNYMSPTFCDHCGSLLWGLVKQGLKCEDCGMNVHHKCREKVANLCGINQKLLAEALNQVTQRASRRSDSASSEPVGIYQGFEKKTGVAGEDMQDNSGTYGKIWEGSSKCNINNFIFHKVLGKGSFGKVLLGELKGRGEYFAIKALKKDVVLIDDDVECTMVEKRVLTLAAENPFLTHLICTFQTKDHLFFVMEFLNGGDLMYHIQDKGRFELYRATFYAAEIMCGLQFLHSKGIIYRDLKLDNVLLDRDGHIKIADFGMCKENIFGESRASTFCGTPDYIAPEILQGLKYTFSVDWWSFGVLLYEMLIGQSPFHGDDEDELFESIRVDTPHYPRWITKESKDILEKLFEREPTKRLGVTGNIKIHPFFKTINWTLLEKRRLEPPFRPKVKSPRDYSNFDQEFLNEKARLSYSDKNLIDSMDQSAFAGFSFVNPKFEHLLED

SMILES: CCN(CC)CC(=O)Nc1c(C)cccc1C [lidocaine, (2-diethylamino)-N-(2,6-dimethylphenyl)-acetamide]
- binding to and modulation of the effects of PKCδ [1]: binds to and modulates (e.g. inhibits)
- inhibition of calcium-activated, phospholipid-dependent protein kinase (PKC) [2]: inhibits
